{
  "source": "patent US20210369662A1",
  "about": "“FAT ACCUMULATION INHIBITOR AND BLOOD LIPID LEVEL IMPROVING AGENT” (ASAHI GROUP HOLDINGS, LTD., priority 2018, published 2021)",
  "key": {"[1]": {"test_system": "C57BL/6N male mice on high-fat diet", "test": "Fat accumulation in high-fat diet mice (CT scan and adipose tissue weight)", "assay_type": "in vivo", "details": "15 weeks", "procedure": "(§1) The animal experiment was approved by the Animal Experiment Committee of Asahi Group Holdings, Ltd. (Mar. 9, 2017), and was conducted in accordance with the guidelines for the management and use of laboratory animals of the company's R&D center (implementation period: Apr. 3, 2017 to Jan. 10, 2018). Four-week-old C57BL/6N male mice (Japan SLC, Inc.) were purchased and used for the experiment. The mice were raised in the following environment: room temperature: 23±1.5° C., humidity: 55±15%, lighting time: 8:00 to 20:00.\n(§2) High-fat diet containing 45 kcal % fat (Research Diets, Inc., D12451) was used to prepare feed with or without 0.1% 10-HOA. The four-week-old mice were acclimated to the high-fat diet for 2 weeks, then divided into two groups: (1) high-fat diet control group and (2) 0.1% 10-HOA-containing high-fat diet group, with 10 mice per group, and were administered the diet for 15 weeks. Feed and drinking water (tap water) were given freely by individual housing.\n(§3) After fasting for 16 hours from the day before dissection, the amount of abdominal visceral fat, subcutaneous fat, and total fat (sum of the amount of visceral fat and subcutaneous fat) were measured by a CT scanner (Latheta LCT-100; Hitachi Aloka Medical, Ltd.), under anesthesia by isoflurane inhalation. Then, the abdomen was opened under anesthesia, and blood was collected from the abdominal vena cava. Visceral fat (perirenal fat, and retroperitoneal fat) and jejunal epithelial tissue were collected to measure the weight of adipose tissue. The above test was repeated three times, and an analysis was performed by a two-way analysis of variance (factor 1: test group, factor 2: number of animal experiments) (n=10×3/group)."}, "[2]": {"test_system": "cholesterol transporter (NPC1L1)", "test": "Gene expression level of cholesterol transporter in jejunal epithelial tissue (real-time PCR)", "assay_type": "in vivo, mice", "details": "0.1% 10-HOA in high-fat diet, 15 weeks, mRNA relative to control group, internal standard 36b4 (FIG. 8)", "procedure": "as §1\nHigh-fat diet containing 45 kcal % fat (Research Diets, Inc., D12451) was used to prepare feed with or without 0.1% 10-HOA. […]\nAfter fasting for 16 hours from the day before dissection, the amount of abdominal visceral fat, subcutaneous fat, and total fat (sum of the amount of visceral fat and subcutaneous fat) were measured by a CT scanner (Latheta LCT-100; Hitachi Aloka Medical, Ltd.), under anesthesia by isoflurane inhalation. […]\nThe triglyceride concentration in the plasma was measured using a Triglyceride E test. The amount of cholesterol in the plasma was measured using a conventional method (G. Toshima et al., LipoSEARCH (registered trademark); Analytical GP-HPLC method for lipoprotein profiling and its applications, J. Biol. Macromol., 13 (2), 21-32 (2013)) at Skylight Biotech Inc,. […] The mRNA expression level was expressed as a relative value to the control group."}, "[3]": {"test_system": "C57BL/6N male mice on high-fat diet", "test": "Plasma lipids and apolipoprotein A-I in high-fat diet mice", "assay_type": "in vivo", "details": "0.1% 10-HOA in high-fat diet, 15 weeks", "procedure": "as §1, §2, §3\nThe triglyceride concentration in the plasma was measured using a Triglyceride E test. The amount of cholesterol in the plasma was measured using a conventional method (G. Toshima et al., LipoSEARCH (registered trademark); Analytical GP-HPLC method for lipoprotein profiling and its applications, J. Biol. Macromol., 13 (2), 21-32 (2013)) at Skylight Biotech Inc,. Mouse Apolipoprotein A-I ELISAPRO kit (MABTECH) was used for the measurement of apolipoprotein A-I in the plasma. The jejunal epithelial tissue was collected by QIAzol Lysis Reagent (QIAGEN), and total RNA was extracted according to the product protocol of RNeasy Mini Kit (QIAGEN). Total RNA was reverse transcribed by M-MLV Reverse Transcriptase (Life Technologies Japan Ltd.) to prepare cDNA. To measure the mRNA expression level, real-time PCR by the intercalator method was performed using Light Cycler System (Roche Diagnostics K.K.). […] The mRNA expression level was expressed as a relative value to the control group."}, "[4]": {"details": "0.1% 10-HOA in high-fat diet (45 kcal % fat), adipose tissue weight, n=10x3/group"}},
  "data": [
    {"smiles": "CCCCCCCCC(O)CCCCCCCCC(=O)O", "note": "(stereo not shown) [10-HOA, 10-hydroxyoctadecanoic acid]", "values": [
      {"measurement": "Fat on the posterior abdominal wall", "setting": "[1]; [4]", "result": "0.6805 ± 0.0206", "unit": "g"},
      {"measurement": "Perirenal fat", "setting": "[1]; [4]", "result": "0.4924 ± 0.0130", "unit": "g"},
      {"measurement": "weights of perirenal fat and retroperitoneal fat", "setting": "[1]; 0.1% 10-HOA in high-fat diet, compared to control (Table 1)", "result": "reduced"},
      {"measurement": "amount of abdominal visceral fat", "setting": "[1]; CT scanner, 0.1% 10-HOA in high-fat diet, compared to control group (FIG. 1)", "result": "significantly reduced"},
      {"measurement": "total amount of fat", "setting": "[1]; CT scanner, sum of visceral and subcutaneous fat, 0.1% 10-HOA in high-fat diet, compared to control (FIG. 3)", "result": "decreasing tendency"},
      {"measurement": "gene expression level of the cholesterol transporter (NPC1L1) in jejunal epithelial tissue", "setting": "[2]", "result": "decrease"},
      {"measurement": "triglyceride concentration in plasma", "setting": "[3]; 16 h fasting, compared to control (FIG. 4)", "result": "decreasing tendency"},
      {"measurement": "Apolipoprotein A-I in plasma", "setting": "[3]; ELISA, compared to control (FIG. 6)", "result": "increasing tendency"},
      {"measurement": "small HDL cholesterol in plasma", "setting": "[3]; compared to control (FIG. 5)", "result": "significantly increased"},
      {"measurement": "chylomicron cholesterol in plasma", "setting": "[3]; compared to control (FIG. 7)", "result": "significant decrease"}
    ]}
  ]
}
